In patent publication US9895363B2, “Methods for modulating function of proliferating cell nuclear antigen (PCNA) and treating cancer with PCNA-targeting compounds” (University of Cincinnati, priority 2010, dated 2018):
pIC50: −log10 of the molar value.

Columns and labels:
[1] = biological target: T1, p21Waf1/Cip1 and PCNA (Homo sapiens, UniProt P12004); experiment: Association of p21Waf1/Cip1 to PCNA (immunoprecipitation); assay type: cell-based; settings: Pc-3 and LNCaP, 0.5 μM, 8 H; FIG. 13
T1 construct: endogenous in cells; host or cells: PC-3, LNCaP
Procedure: Chromatin-associated trimeric PCNA executes its function through numerous partner proteins, including p21Waf1/Cip1. To validate that treatment with PCNA-I1 reduces function of PCNA, the binding of p21Waf1/Cip1 to PCNA was investigated. Specifically, Pc-3 and LNCaP cells were treated with PCNA-I1 (0.5 μM) for 8 H and lysed in buffer B as previously discussed. Chromatin-associated protein was extracted in buffer D containing 0.42 M NaCl. The chromatin-associated protein was precipitated with the antibody to PCNA, and was resolved in SDS-PAGE, and probed with antibodies to p21Waf1/Cip1 and PCNA.

[2] = test system: PC-3 cells; experiment: Cell cycle distribution by flow cytometry, PC-3; assay type: cell-based, Human
Procedure: The effects of PCNA inhibitors on cell cycle progression were investigated via flow cytometry analysis. Specifically, PC-3 cells were plated into 60 mm plates at 2×10^5 cells/plate and were allowed to attach overnight.
The cells were rinsed with HBSS, detached by trypsinization, suspended in MEM-5% FBS, pelleted by centrifugation, resuspended in PI staining solution (PBS containing 50 μg/mL PI, 100 μg/mL RNase A, and 0.05% Triton X-100), and incubated for 45 min at 37° C. After washing with PBS, the cells were resuspended in PBS for flow cytometry analysis in an Epics-XL-MCL system (Beckman Coulter, Fullerton, Calif.). Thirty thousand cells at each time point were collected to determine their DNA content and to obtain flow cytometric fluorescence histograms (X-axis fluorescence, Y-axis cell number). The three fractions (G0/G1, G2/M and S) were quantified by using the Synchronization Wizard of ModFit LT Flow Cytometry Cell-cycle Analysis Softward (Verity Software House, Topsham, Me.).
Flow cytometry analysis was also performed on cells in which endogenous PCNA was knocked down with transfection of PCNA-specific siRNA. Specifically, PC-3 cells were plated into a 60-mm plate at 2×10^5/plate in antibiotics-free medium and transfected with 200 pmol PCNA specific siRNA or control scrambled siRNA for 24 H using Lifectamine 2000. The cells were then cultured in SFM for 24 H, followed by incubation in fresh SFM or stimulation with medium supplemented with 5% FBS, and sampled at different times for analyses. The PC-3 cells were also subjected to western blot analysis. Specifically, cells were washed and scraped into a lysis buffer (1% Triton X-100, 20 mM Tris-HCl, pH 8.0, 137 mM NaCl, 10% glycerol, 2 mM EDTA, 1 mM PMSF, and a protease inhibitor cocktail) and analyzed by Western blotting analysis as described by Zhang et al. in Tumor-infiltrating Macrophages are Involved in Suppressing Growth and Metastasis of Human Prostate Cancer Cells by INF-beta Gene Therapy in Nude Mice; Clin. Cancer Res. 2002; 8:29:2942-51. Samples were collected at 0 H (48 H after transfection), 24 H, 48 H, and 72 H, respectively.
Fluorescence-activated cell sorting (FACS) analysis was performed on both PC-3 cells and LNCaP cells using PCNA-I1. Specifically, cells were treated with 1 or 10 μM PCNA-I1 and sampled for the flow cytometry analysis at 24 H, 48 H, and 72 H. Expression of DNA damage and apoptosis-related proteins in PC-3 cells and LNCaP cells was also determined. Cisplatin, a well-known drug that induces DNA damage and apoptosis, was included in the experiment. LNCaP cells were treated for 6 H, 12 H, or 18 H with 10 μM PCNA-I1, 10 μM cisplatin, or both.

[3] = test system: primary human prostate epithelial cells; experiment: Growth inhibition, prostate epithelial cells; assay type: cell-based; settings: Epithelial cell, normal cells
Procedure: Growth inhibitory effects of PCNA-I1 and PCNA-I2 were assessed in human cancer cell lines, mouse cancer cell lines, immortalized mouse cell lines, and human primary cell lines. Specifically, growth inhibitory effects of PCNA-I1 and PCNA-I2 were assessed using MTT staining in the following cells lines: 1) human cancer cell lines including LNCaP (androgen receptor […]), 22Rv1, DU-145, LAPC-4, and PC-3 (androgen receptor […]) prostate cancer cells; MCF-7 and T47D breast cancer cells; A375 and MDA-MB435 melanoma cells; 2) mouse cancer cell lines including TRAMP-C2RE3 prostate cancer cells, B16 and K1735 melanoma cells, UV2237 fibrosarcoma cells, and CT-26 colon cancer cells; 3) immortalized mouse lung cell lines and mouse endothelial cell lines; and 4) primary human cell lines including umbilical endothelial cells (HUVEC, PromoCell, Heidelberg, Germany), primary bone marrow mesenchymal stem cells (HuMSC, PromoCell), primary human mammary epithelial cells (HuBrEC, Lonza, Walkersville, Md.), primary human prostate epithelial cells (HuPrEC, Lonza), and primary mouse spleen lymphocytes (isolated in this laboratory), and primary mouse bone marrow stromal cells (isolated in this laboratory). […]
IC50 values were derived from growth inhibition curves. […] Inhibition of cell growth was calculated using the formula: growth inhibition (%)=(1−A570 of treated/A570 of control)×100. […]

[4] = 1 μM, 5% FBS after serum starvation, FIGS. 4 and 5

T1 sequence (P12004 whole entry): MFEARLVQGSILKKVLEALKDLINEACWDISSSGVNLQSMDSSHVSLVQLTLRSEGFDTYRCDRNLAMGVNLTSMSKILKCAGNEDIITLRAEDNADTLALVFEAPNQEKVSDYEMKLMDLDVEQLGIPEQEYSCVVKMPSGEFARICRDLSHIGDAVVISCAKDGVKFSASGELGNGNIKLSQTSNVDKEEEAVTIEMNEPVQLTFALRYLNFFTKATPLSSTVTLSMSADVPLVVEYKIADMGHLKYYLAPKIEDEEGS

In the case of Cc1ccsc1C(=O)N/N=C/c1ccc2ccccc2c1O [PCNA-I1], the “Level of chromatin-associated PCNA and p21Waf1/Cip1” value [1] was “reduced the level of PCNA and p21Waf1/Cip1”, the “Cells in G1 phase” value ([2]; 1 μM, 5% FBS after serum starvation, 24-72 H, FIGS. 4 and 5) was “partially attenuated the serum-stimulated G1 decrease at 24 H but led to significant G1 reductions at 48 H and 72 H” and the “Cells in S phase” value [2, 4] was “significantly increased at 24 H”. The “G2/M fraction of cells” value [2, 4] was “increased steadily at 48 H and 72 H”, the “Cell cycle effect, PC-3, 1 μM” value ([2]; 1 μM, FIG. 15) was “cell growth arrest at S and G2/M phases” and the “Cell cycle effect, PC-3, 10 μM” value ([2]; 10 μM, FIG. 15) was “more significant G1 arrest”. For the same compound, the “Apoptosis, PC-3” value ([2]; 1 or 10 μM, 24, 48, 72 H) was “Apoptosis was not observed” and the pIC50 [3] was 5.70.
